Assay type in all cases: cell-based, human
Assay [1] deals with hESC-induced posterior primitive streak. The assay can be described thus: Intermediate mesoderm (IM) induction from hESC-induced posterior primitive streak (IF, qRT-PCR). As for the experimental part: (§1) HES3 (MIXL1^GFP/wt) cells were routinely cultured on irradiated MEF feeder cells in F12/DMEM (Life Technologies) supplemented with 20% KnockOut serum replacement (Life Technologies), 100 μM MEM NEAA (Life Technologies), 110 μM 2-mercaptoethanol (Life Technologies), 1×penicillin/streptomycin (Life Technologies), 1× Glutamax (Life Technologies) and 10 ng/mL bFGF (R&D systems). The day before starting differentiation, cells were plated at 12,000-15,000 cells/cm^2 on a Matrigel coated 96-well plate. After overnight culture, cells were exposed to 30 ng/mL BMP4 (R&D systems) and 10 ng/mL Activin A (R&D systems) or 8 μM CHIR99021 in a previously established serum free media APEL for 2-3 days, then 200 ng/mL FGF9 and 1 μg/mL Heparin in APEL media for 4 days to induce IM cells. Subsequently cells were exposed to 200 ng/mL FGF9, 50 ng/mL BMP7, 0.1 μM RA and 1 μg/mL Heparin for 4-11 days in case of BMP4/Activin A induction. In case of CHIR99021 induction, cells were exposed to 200 ng/mL FGF9 and 1 μg/mL Heparin for 6 days then cultured in APEL basal media for another 6 days. Media was changed every 2 days.
Cells were fixed with 4% Paraformaldehyde in PBS for 10 min at 4° C. followed by a wash with PBS. […]
(§2) Total RNA was extracted from cells using RNeasy micro kit (QIAGEN) and cDNA was synthesized from >100 ng RNA using Super Script III reverse transcriptase (Life Technologies). Quantitive RT-PCR (qRT-PCR) analyses were performed with Syber Green (Applied Biosystems) by ABI PRISM 7500 real-time PCR machine. […]
To quantify the proportion of differentiated cells positive for PAX2^+, LHX1^+, SOX17^+, SIX2^+ or WT1^+, cells were immunofluorescently stained with each antibody together with the nuclear stain, DAPI. The ratio of differentiated cells to total cells was manually counted using Image J in 1 or 2 representative fields per experiment (total 3-5 representative fields from 3 independent experiments, 1-1.5×10^3 cells in total), using an Olympus BX-51 microscope, 10× objective.

A further assay deals with hESC-derived IM cells. In words: Differentiation of IM to ureteric epithelium and metanephric mesenchyme/nephron progenitors (IF, PCR). The note with it: for production of mesenchyme (HOXD11, SIX2, SIX1, WT1, EYA1 expression): CHIR99021 at 1 μM through Stage 2 and 3 and RA antagonist added. Here is the method: as §1
Cells were fixed with 4% Paraformaldehyde in PBS for 10 min at 4° C. followed by a wash with PBS. Then cells were blocked with 1% BSA, 0.2% milk, 0.3% Triton X/PBS for 1 hr at RT and incubated with primary antibodies overnight at 4° C.
Secondary antibodies were incubated for 1 hr at RT. The following antibodies and dilutions were used: rabbit anti-PAX2 (1:200, #71-6000, Zymed Laboratories Inc.), goat anti-OSR1 (1:75, #sc-67723, Santa Cruz Biotechnology), goat anti-LHX1 (1:75, #sc-19341, Santa Cruz Biotechnology), mouse anti-TBX6 (1:200, AF4744, R&D systems), goat anti-SOX17 (1:200, #AF1924, R&D systems), rabbit anti-SIX2 (1:200, #11562-1-AP, Proteintech), mouse anti-ECAD (1:200, #610181, BD Biosciences), rabbit anti-WT1 (1:100, #sc-192, Santa Cruz Biotechnology), mouse anti-HOXD11 (1:200, #SAB1403944, Sigma-Aldrich), goat anti-GATA3 (1:200, AF2605, R&D systems), rabbit anti-JAG1 (1:200, #ab7771, Abcam), rabbit anti-CDH6 (1:100, #HPA007047, Sigma Aldrich) and goat anti-SYNPO (1:200, #sc-21537, Santa Cruz Biotechnology). Secondary antibodies were: Alexa-488-conjugated goat anti-rabbit, Alexa-594-conjugated donkey anti-rabbit, Alexa-488-conjugated donkey anti-goat and Alexa-594-conjugated goat anti-mouse (1:250, Life Technologies). Images were taken using Nikon Ti—U microscope or Zeiss LSM 510 Meta UV confocal microscope. […]
as §2

Assay [2] deals with reporter hESC line, MIXL1GFP/wt. The assay can be described thus: Posterior primitive streak induction from MIXL1-GFP reporter hESC (FACS, qRT-PCR). As for the experimental part: as §1, with “Media was changed every 2 days.” left out
as §2
Background: Real-time PCR tracks product formation cycle by cycle.

For `CCN(CC)CCCCNc1ncc2cc(-c3cc(OC)cc(OC)c3)c(NC(=O)NC(C)(C)C)nc2n1` [PD173074], in assay [1] (day 6, FGF 200 ng/ml day 2 to 6), the “PAX2 and LHX1 induction in response to FGF2 or FGF9” value is reported as “dramatically inhibited”.
Take `Cc1ccc(C2=CCC(C)(C)c3ccc(C#Cc4ccc(C(=O)O)cc4)cc32)cc1` [AGN193109]: the “production of mesenchyme (HOXD11, SIX2, SIX1, WT1, EYA1 expression)” value in the assay with hESC-derived IM cells is listed as “improved”.
For the molecule `Cc1c[nH]c(-c2cnc(NCCNc3ccc(C#N)cn3)nc2-c2ccc(Cl)cc2Cl)n1` [CHIR99021], the “concentration optimal for posterior primitive streak” value in assay [2] (comparative expression of MIXL1, T, SOX17, 5, 7, 9 μM tested) was > 7 µM. Further, the “cells became GFP+ (MIXL1-GFP positive posterior primitive streak cells)” value in assay [2] (high BMP4/low Activin A (30/10 ng/mL) or high CHIR99021, 3 days culture, FACS) was “approximately 90%”. The “production of mesenchyme (HOXD11, SIX2, SIX1, WT1, EYA1 expression)” value with hESC-derived IM cells is “improved”. The “Stage 1 concentration giving optimal ratio of epithelium to nephron progenitors” value in the assay on hESC-derived IM cells (first 2 days in culture, cultured out to day 18, 6 μM better than 8 μM) worked out at 6 µM.

B1: NOG: BMP antagonist NOG (noggin) (protein, UniProt Q13253 28-232, looked up)
Noggin: QHYLHIRPAPSDNLPLVDLIEHPDPIFDPKEKDLNETLLRSLLGGHYDPGFMATSPPEDRPGGGGGAAGGAEDLAELDQLLRQRPSGAMPSEIKGLEFSEGLAQGKKQRLSKKLRRKLQMWLWSQTFCPVLYAWNDLGSRFWPRYVKVGSCFSKRSCSVPEGMVCKPSKSVHLTVLRWRCQRRGGQRCGWIPIQYPIISECKCSC
B1: the “FOXF1 (LPM marker) expression” value in assay [1] (NOG together with FGF9 from day 2 to 6, qRT-PCR day 6) is reported as “effectively suppressed”.

B2: BMP7: bone morphogenic protein 7 (protein, UniProt P18075 293-431, looked up)
Bone morphogenetic protein 7: STGSKQRSQNRSKTPKNQEALRMANVAENSSSDQRQACKKHELYVSFRDLGWQDWIIAPEGYAAYYCEGECAFPLNSYMNATNHAIVQTLVHFINPETVPKPCCAPTQLNAISVLYFDDSSNVILKKYRNMVVRACGCH
Turning to B2, the effect on mesenchyme entry in the assay on hESC-derived IM cells (BMP7 together with FGF9 in Stage 3) is “slightly improves the mesenchyme”.

B3: FGF8: FGF family member (protein, UniProt P55075 23-233, looked up)
Fibroblast growth factor 8: QEGPGRGPALGRELASLFRAGREPQGVSQQHVREQSLVTDQLSRRLIRTYQLYSRTSGKHVQVLANKRINAMAEDGDPFAKLIVETDTFGSRVRVRGAETGLYICMNKKGKLIAKSNGKGKDCVFTEIVLENNYTALQNAKYEGWYMAFTRKGRPRKGSKTRQHQREVHFMKRLPRGHHTTEQSLRFEFLNYPPFTRSLRGSQRTWAPEPR
Regarding B3, in assay [1] (200 ng/mL FGF for 4 days), the “coexpression of OSR1, PAX2 and LHX1 (IM induction)” value is listed as “not”.

Source of the values: patent US20240344034A1, “Renal Progenitor Cells” (The University of Queensland, priority 2013, published 2024).
